According to patent US8192962B2, “Processes for detecting toxic substances” (Daikin Industries, Ltd., priority 2001, dated 2012):

Test system: Genes belonging to other category
Assay: DNA chip mRNA expression in yeast, genes belonging to other category (Table 9)
Format: cell-based, Saccharomyces cerevisiae S288C
Procedure, shortened: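 Cells were grown at 25° C. in YPD, treated at logarithmic phase for 2 h with a chemical at a concentration inhibiting growth but not causing death, and compared with untreated cultures. Labeled cDNA was hybridized to a DNA chip carrying all yeast genes, and the expression ratio was taken from scanner fluorescence.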

C=CC=O [(14), acrolein]
The level of expressed mRNA in the presence of chemical substance/The level of expressed mRNA in the absence of chemical substance (yeast gene YAL055W): 1.6 | The level of expressed mRNA in the presence of chemical substance/The level of expressed mRNA in the absence of chemical substance (yeast gene YAR009C): 1.0 | The level of expressed mRNA in the presence of chemical substance/The level of expressed mRNA in the absence of chemical substance (yeast gene YAR010C): 1.0 | The level of expressed mRNA in the presence of chemical substance/The level of expressed mRNA in the absence of chemical substance (yeast gene YAR062W): 1.1 | The level of expressed mRNA in the presence of chemical substance/The level of expressed mRNA in the absence of chemical substance (yeast gene YBL005W-A): 1.4 | The level of expressed mRNA in the presence of chemical substance/The level of expressed mRNA in the absence of chemical substance (yeast gene YBL041W): 2.0 | The level of expressed mRNA in the presence of chemical substance/The level of expressed mRNA in the absence of chemical substance (yeast gene YBL043W): 1.9 | The level of expressed mRNA in the presence of chemical substance/The level of expressed mRNA in the absence of chemical substance (yeast gene YBL078C): 3.6 | The level of expressed mRNA in the presence of chemical substance/The level of expressed mRNA in the absence of chemical substance (yeast gene YBL101W-A): 1.5 | The level of expressed mRNA in the presence of chemical substance/The level of expressed mRNA in the absence of chemical substance (yeast gene YBL102W): 1.1 | The level of expressed mRNA in the presence of chemical substance/The level of expressed mRNA in the absence of chemical substance (yeast gene YBR010W): 1.0 | The level of expressed mRNA in the presence of chemical substance/The level of expressed mRNA in the absence of chemical substance (yeast gene YBR026C): 1.5 | The level of expressed mRNA in the presence of chemical substance/The level of expressed mRNA in the absence of chemical substance (yeast gene YBR139W): 1.1 | The level of expressed mRNA in the presence of chemical substance/The level of expressed mRNA in the absence of chemical substance (yeast gene YBR170C): 1.3 | The level of expressed mRNA in the presence of chemical substance/The level of expressed mRNA in the absence of chemical substance (yeast gene YBR173C): 3.0 | The level of expressed mRNA in the presence of chemical substance/The level of expressed mRNA in the absence of chemical substance (yeast gene YBR177C): 1.3 | The level of expressed mRNA in the presence of chemical substance/The level of expressed mRNA in the absence of chemical substance (yeast gene YBR214W): 0.9 | The level of expressed mRNA in the presence of chemical substance/The level of expressed mRNA in the absence of chemical substance (yeast gene YBR239C): 1.1 | The level of expressed mRNA in the presence of chemical substance/The level of expressed mRNA in the absence of chemical substance (yeast gene YBR286W): 1.5 | The level of expressed mRNA in the presence of chemical substance/The level of expressed mRNA in the absence of chemical substance (yeast gene YBR290W): 1.4 | The level of expressed mRNA in the presence of chemical substance/The level of expressed mRNA in the absence of chemical substance (yeast gene YCL020W): 1.7 | The level of expressed mRNA in the presence of chemical substance/The level of expressed mRNA in the absence of chemical substance (yeast gene YCL027W): 1.2 | The level of expressed mRNA in the presence of chemical substance/The level of expressed mRNA in the absence of chemical substance (yeast gene YCR004C): 3.7 | The level of expressed mRNA in the presence of chemical substance/The level of expressed mRNA in the absence of chemical substance (yeast gene YCR062W): 1.0 | The level of expressed mRNA in the presence of chemical substance/The level of expressed mRNA in the absence of chemical substance (yeast gene YCR069W): 1.0 | The level of expressed mRNA in the presence of chemical substance/The level of expressed mRNA in the absence of chemical substance (yeast gene YCR071C): 1.7 | The level of expressed mRNA in the presence of chemical substance/The level of expressed mRNA in the absence of chemical substance (yeast gene YCR088W): 0.9 | The level of expressed mRNA in the presence of chemical substance/The level of expressed mRNA in the absence of chemical substance (yeast gene YDL008W): 2.2 | The level of expressed mRNA in the presence of chemical substance/The level of expressed mRNA in the absence of chemical substance (yeast gene YDL018C): 1.5 | The level of expressed mRNA in the presence of chemical substance/The level of expressed mRNA in the absence of chemical substance (yeast gene YDL137W): 1.4 | The level of expressed mRNA in the presence of chemical substance/The level of expressed mRNA in the absence of chemical substance (yeast gene YDL238C): 1.2 | The level of expressed mRNA in the presence of chemical substance/The level of expressed mRNA in the absence of chemical substance (yeast gene YDR055W): 0.9 | The level of expressed mRNA in the presence of chemical substance/The level of expressed mRNA in the absence of chemical substance (yeast gene YDR084C): 1.0 | The level of expressed mRNA in the presence of chemical substance/The level of expressed mRNA in the absence of chemical substance (yeast gene YDR085C): 1.6 | The level of expressed mRNA in the presence of chemical substance/The level of expressed mRNA in the absence of chemical substance (yeast gene YDR104C): 1.4 | The level of expressed mRNA in the presence of chemical substance/The level of expressed mRNA in the absence of chemical substance (yeast gene YDR115W): 1.5 | The level of expressed mRNA in the presence of chemical substance/The level of expressed mRNA in the absence of chemical substance (yeast gene YDR125C): 1.0 | The level of expressed mRNA in the presence of chemical substance/The level of expressed mRNA in the absence of chemical substance (yeast gene YDR168W): 1.4 | The level of expressed mRNA in the presence of chemical substance/The level of expressed mRNA in the absence of chemical substance (yeast gene YDR259C): 1.5 | The level of expressed mRNA in the presence of chemical substance/The level of expressed mRNA in the absence of chemical substance (yeast gene YDR304C): 1.7 | The level of expressed mRNA in the presence of chemical substance/The level of expressed mRNA in the absence of chemical substance (yeast gene YDR315C): 1.4 | The level of expressed mRNA in the presence of chemical substance/The level of expressed mRNA in the absence of chemical substance (yeast gene YDR358W): 1.2 | The level of expressed mRNA in the presence of chemical substance/The level of expressed mRNA in the absence of chemical substance (yeast gene YDR373W): 2.1 | The level of expressed mRNA in the presence of chemical substance/The level of expressed mRNA in the absence of chemical substance (yeast gene YDR378C): 1.4 | The level of expressed mRNA in the presence of chemical substance/The level of expressed mRNA in the absence of chemical substance (yeast gene YDR388W): 0.6 | The level of expressed mRNA in the presence of chemical substance/The level of expressed mRNA in the absence of chemical substance (yeast gene YDR403W): 1.1 | The level of expressed mRNA in the presence of chemical substance/The level of expressed mRNA in the absence of chemical substance (yeast gene YDR427W): 1.0
